In patent US20020037328A1, “Hexitol compositions and uses thereof” (priority 2000, published 2002):

Test system: murine fibrosarcomas (RIF-1 cells)
Experiment: Tumor growth delay (tumor volume quadrupling time) of RIF-1 fibrosarcomas in C3H mice
Type: in vivo
Conditions: Dianhydrogalactitol 10 mg/kg, Cisplatin 4 mg/kg; for Delay (median TVQT of treated group minus control group) / TVQT/CTVQT (ratio of TVQT of treated tumor over untreated control) / Median (TVQT): RIF-1 tumors in C3H mice, i.p., combination 10 → 4 mg/kg (30 min apart); for TVQT/CTVQT (ratio of TVQT of treated tumor over untreated control): control 1.0; for Median (TVQT): control 6.3; for Mean TVQT ± S.E. (tumor volume quadrupling time): RIF-1 tumors intradermal in female C3H mice, single i.p. injection, combination 10 → 4 mg/kg (cisplatin 30 min after dianhydrogalactitol), 4 mice per group, untreated control 6.3 ± 0.3
Description: Transplantable experimental murine fibrosarcomas (2×10^5 RIF-1 cells) were grown intradermally in the flanks of 3 month old female C3H mice (Charles River, Hollister, Calif.). When the tumors reached a volume of approximately 100 mm^3, the mice were randomly assigned to each experimental group (4 mice per group).
The experimental compositions were prepared as described in Table 1.
Dianhydrogalactitol was obtained from NCI and was made to the appropriate concentration in DMSO. Cisplatin (David Bull Laboratories- Mulgrave, Australia, lot. 5201844x) was made to the appropriate concentration in water for injection. The compositions were injected systemically (i.e., intraperitoneally, i.p.), in a volume of 100 microliters. For the treatment of group 3, dianhydrogalactitol, was injected 30 minutes prior to the injection of cisplatin. After treatment, the growth of the tumors was monitored three times per week by caliper measurements of three perpendicular diameters of the tumor and calculation of tumor volume from the formula: […]
where D1-3 are the diameters in mm of the three perpendicular axes.
The tumors were followed until they reached a size of four times their day zero treatment volume (TVQT), or up to 30 days after treatment, whichever came first. The data is expressed as the “tumor volume quadrupling time” (TVQT) mean and as the “delay.” Mean TVQT is the mean days required for individual tumors to grow to four times the tumor volume at the initial treatment day. The “delay” is the median of days required for a tumor to grow to four times the mean size of the treated group, minus the median of days required to grow to four times the mean size of the control group. The data is also expressed as the ratio of the tumor volume quadrupling time of the treated tumor over the untreated control group (TVQT/CTVQT). Increasing values of this ratio indicate increased antitumor response.

Structure (SMILES) | Delay (median TVQT of treated group minus control group) | TVQT/CTVQT (ratio of TVQT of treated tumor over untreated control) | Median (TVQT) | Mean TVQT ± S.E. (tumor volume quadrupling time)
OC(C1CO1)C(O)C1CO1 (centres unmarked) [Dianhydrogalactitol, 1,2:5,6-Dianhydrogalactitol] | 5.12 days | 1.7 | 11.4 days | 10.9 ± 0.8 days
N.N.[Cl][Pt][Cl] [Cisplatin, cis-diamminedichloroplatinum II] | 1.45 days | 1.2 | 7.7 days | 7.4 ± 0.3 days
